What was measured:
HCT116 = test: Short term 5-FU drug study on organoids (MTS, live/dead ratio); format: cell-based; settings: drug treated organoids vs control
Description: Three bioink formulations (“HA-collagen bioink”) were prepared and the viscoelastic behavior as well as cellular behavior within the material was quantified. The HA-collagen bioinks were formulated in three concentrations: 1:2, 1:3, and 1:4 (Heprasil® from Hystem-HP kit: methacrylated collagen type-1 from Advanced Biomatrix). Collagen was prepared as instructed by Advanced Biomatrix at 6 mg/mL and Heprasil® was prepared to 1% w/v with 0.1% photointiator in DiH2O and warmed to 37° C. Bioink formulations underwent rheological, cell viability, and 3D bioprinting testing conducted on the BioBots 1 device. As a comparison, tests were performed using the a Hystem-HP kit (thiolated hyaluronic acid and gelatin) made with 0.1% photointiator in DiH2O. Rheology was performed to determine shear elastic moduli G′ and 3D bioprinting was utilized to test printability of each material. Organoids were formed in 10 μL drops of bioink with […] per organoid, containing BXP3C, HCT116, Lx2, or pfHSC cell lines. Live/dead staining and picrosirus red collagen bundling analysis was performed on Lx2 and pfHSC organoids to assess viability and micro-architecture formation. A short term 5-Fluorouracil (5-FU) drug study was also conducted on HCT116 to show drug efficacy invariance between the Hystem-HP kit and 1:3 formulated bioink. […]

liver organoids [1] = test: Acetyl-para-aminophenol toxicity and NAC rescue in liver organoids (live/dead, albumin, alpha-GST); format: cell-based, human
Description: Drugs were dissolved in HCM media to reach the desired concentrations. […] Viability of the liver organoids was assessed using live/dead assay on day 14; albumin and alpha GST production were quantified from media collected on days 4, 7, 10, and 14, as described above.

liver organoids [2] = test: Recalled drug study on liver organoids (Cell-Titer Glo viability, live/dead); format: cell-based, human; settings: for EC50: Homo sapiens, liver organoids, 48 hours, read-out: half-maximal effective concentration (EC50), analysis of cell death
Description: (§1) Cryopreserved primary human hepatocytes were thawed according to manufacturer's protocol and the cells were directly used in experiments. LX2 hepatic stellate cells were trypsinized with 0.05% of trypsin (Hyclone) and counted. Forty thousand human hepatocytes and ten thousand LX2 hepatic stellate cells were suspended in 10 μl of formulation collagen gel (collagen, hyaluronic acid, and fibronectin) or without fibronectin for the formation of liver organoids. The organoids were engineered in an identical method to cell line organoid formation described above, except 24-well plates (Corning) were employed. The wells were filled with 2 mL of HCM media (Triangle Research Labs), which was replenished after collecting media aliquots for further analysis on day 4, 7 and 10 of the experiment. The organoids were cultured for 14 days.
The hepatoxic drugs bromfenac sodium, troglitazone and tienilic acid, recalled by the FDA, were chosen for this study.^12, 32 All the compounds were purchased from Sigma-Aldrich. Drugs were dissolved in DMSO (dimethyl sulfoxide) for stock concentrations of 100 mM. Concentrations of 1 μM, 10 μm, 100 μM, and 1000 μM were used for bromfenac sodium and tienilic acid. Concentrations of 1 μm, 10 μM, and 100 μM were used for troglitazone. The drug study was conducted for 48 hours in a 24 well plate at 37° C. with 5% CO2; each well in the plate containing one liver organoid in a 2 mL of media (control) or media with drug dissolved at the concentrations mentioned above (n≥6). The response of the liver organoids was assessed using Cell-Titer Glo Luminescent Cell Viability assay (Promega) prepared according to manufacturer's protocol. The results were quantified using the Veritas Microplate Luminometer setup according to manufacturer's instructions (Turner Bio Systems, Promega). Each condition was also subjected to live/dead staining (Thermo Fisher). Stained organoids were imaged using macro-confocal microscopy (Leica TCS LSI, Leica Microsystems).

liver organoids [3] = test: cells; format: cell-based, human; settings: 48 hours; for EC50: liver organoids, read-out: half-maximal effective concentration (EC50), analysis of cell death
Description: as §1
The environmental toxins glyphosate, mercury chloride, and lead chloride were purchased from Sigma-Aldrich. Drugs were dissolved in diH2O for stock concentrations of 50 mM (glyphosate), 10 mM (mercury chloride), and 20 mM (lead chloride). Concentrations of 1 mM, 5 mM, 10 mM, and 20 mM were used for glyphosate. Concentrations of 10 μM, 20 μM, 50 μM, and 100 μM were used for mercury chloride. Concentrations of 1 mM, 2 mM, 5 mM, and 10 mM were used for lead chloride. The drug study was conducted for 48 hours (n=7) and liver organoids were assessed for viability with ATP assay and live/dead assay as described above.

[4] = test system: LX2 hepatic stellate cells; test: Morphology of cells in HA-Collagen bioink with covalently bound laminin or fibronectin; format: cell-based; settings: 7 days, phalloidin and DAPI
Description: LX2 hepatic stellate cells were cultured within collagen or a HA-Collagen bioink with covalently bound laminin, fibronectin, or both. After 7 days, the constructs were fixed and stained with phalloidin to highlight the actin cytoskeleton of the cells and DAPI for nuclei. What is evident is that modulating laminin versus fibronectin changes the morphology and phenotype of the cells within the constructs. While not wishing to be bound to any particular theory, these changes are likely due to activation of different integrin receptors responsible for binding to collagen, laminin, and fibronectin cell adhesion motifs.

HepG2 cells = test: Cancer organoid proliferation and viability in gel formulations, HepG2; format: cell-based, human; settings: days 4, 7, 10
Description: The cells were trypsinized with 0.05% of trypsin (Hyclone) and counted. […] We chose this cell density for cancer organoid formation based on the results obtained from 3D organoid research performed in our lab.^31 The gel- cell mixture was pipetted in a well of a 48-well plate (Corning, N.Y.) that was pre-coated with 200 μl of polydimethylsiloxane (PDMS; Sylgard 184 elastomer kit, Dow Corning, Midland, Mich.) prepared according to manufacturer's protocol. The organoids were then crosslinked with UV light (Dymax BlueWave 75, Torrington, Conn.) on a high-intensity setting for 3 seconds. The wells were filled with 500 μL of media, which was replenished on day 4 and day 7 of the experiment. The organoids were maintained in culture for 10 days.
Biocompatibility of the different gel formulations was assessed in human cancer cell and liver organoids on days 4, 7, and 10 (n=3) using a standard live/dead cell viability kit (Thermo Fisher, Waltham, Mass.) according to the manufacturer's recommendation. […] Proliferation of cells within the different organoids was evaluated on days 4, 7, and 10 (n=3) by quantification of mitochondrial metabolism with a CellTiter 96® Aqueous One Solution Cell Proliferation Assay kit (Promega, Madison, Wis.) according to the manufacturer's protocol. Absorbance was quantified on a Spectramax M5 plate reader (Molecular Devices, Sunnyvale, Calif.) at 490 nm.

liver organoids [5] = test: Liver organoids with and without fibronectin (live/dead, albumin, urea); format: cell-based
Description: as §1
Cell viability was determined by live/dead assays (Thermo Fisher) on day 7 and 14 using representative images and by quantification of biomarkers from media collected on days 4, 7, 10, and 14 (n=3): Alpha-Glutathione s-transferase (alpha-GST) is secreted by liver cells upon cell death. The secreted levels of alpha-GST by the organoids are quantified using a GST alpha assay kit (GS41, Oxford Biomedical Research; Rochester Hills, Mich.). Absorbance was read on a Spectramax M5 plate reader (Molecular Devices) at 450 nm for alpha-GST.
The secreted levels of albumin and urea of the liver organoids were quantified from media collected on days 4, 7, 10, and 14 (n=3) using a Human Albumin ELISA Kit (Abeam; Boston, Mass. ab108788) and Urea Assay Kit (Abcam, ab83362), respectively. Absorbance was read on a Spectramax M5 plate reader (Molecular Devices) at 450 nm for albumin and at 430 nm for urea.

pfHSCs = test: Cell adhesion and spreading behavior in bioink organoids with fibronectin; format: cell-based; settings: 16 μg per 10 μL construct
Description: Immobilization of fibronectin in the bioink was then verified by assessing cell adhesion and spreading behavior with pfHSCs. Fibronectin (16 μg per 10 μL construct) was added to collagen which was used to make organoids using the bioink with pfHSCs (3 million cells/mL). On days 1, 4, 7, and 10, organoids were removed from culture, fixed, and stained with phalloidin and DAPI.

[6] = organoids containing fibronectin vs without

In the case of `O=c1[nH]cc(F)c(=O)[nH]1` [5-FU, 5-Fluorouracil], the “metabolism, MTS assay” value (HCT116) is reported as “lower metabolism” and the “ratio of dead cells” value (HCT116) is reported as “larger ratio of dead cells”.

With `CC(=O)N[C@@H](CS)C(=O)O` [NAC, N-Acetyl-L-cysteine] the “cell viability of liver organoids exposed to high-concentration APAP” value (liver organoids [1]; 10 mM APAP with 20 mM NAC) was “markedly improved cell viability”, the albumin production (liver organoids [1]; APAP 10 mM co-incubated with NAC 20 mM, day 14) was “partially rescued albumin production” and the alpha-GST production (liver organoids [1]; APAP 10 mM with NAC 20 mM, by day 14) was “noticeable decrease approaching control levels”.

`Nc1c(CC(=O)O)cccc1C(=O)c1ccc(Br)cc1` [bromfenac sodium] was tested, and the EC50 (liver organoids [2]) was 371 µM and the “cell death, live/dead analysis” value (liver organoids [2]; at 1000 μM) was “near to complete cell death”.

With `O=C(O)CNCP(=O)(O)O` [glyphosate] the EC50 (liver organoids [3]; Homo sapiens) was 4100 µM and the “cell death, live/dead analysis” value (liver organoids [3]; at 20 mM) was “near to complete cell death”.

Work on `[Cl][Pb][Cl]` [lead chloride] yielded an EC50 (liver organoids [3]) of 970 µM.

Work on `[Cl][Hg][Cl]` [mercury chloride] yielded an EC50 (liver organoids [3]) of 28.2 µM.

Work on `O=C(O)COc1ccc(C(=O)c2cccs2)c(Cl)c1Cl` [tienilic acid] yielded an EC50 (liver organoids [2]) of 491 µM.

Work on `Cc1c(C)c2c(c(C)c1O)CCC(C)(COc1ccc(CC3SC(=O)NC3=O)cc1)O2` (centres unmarked) [troglitazone] yielded an EC50 (liver organoids [2]) of 6.9 µM.

For fibronectin, the “morphology and phenotype of the cells” value [4] was “mesenchymal”, the “proliferation of encapsulated cells in the organoids” value (HepG2 cells) was “facilitated the proliferation” and the production of albumin (liver organoids [5]; [6]) was “significantly greater”. For the same molecule, the production of urea (liver organoids [5]; [6]) was “significantly greater”, the “cell viability, live/dead analysis” value (liver organoids [5]; with vs without fibronectin, 14 days) was “comparable cell viability” and the “cell elongation behavior earlier than in conditions without fibronectin” value (pfHSCs) was 3 days.

In the case of laminin, the “morphology and phenotype of the cells” value [4] is reported as “epithelial nature”.

From US11629329B2, “Bioink compositions and methods of preparing and using the same” (Wake Forest University Health Sciences, priority 2017, dated 2023)
